Measurements: BindingDB's records for doi:10.1021/jm801503n (Burnham Institute For Medical Research, 2009)

What was measured:
[1] = biological target: T1, Mitogen-activated protein kinase 8 (Homo sapiens, UniProt P45983); test: DELFIA Assay (Dissociation Enhanced Lanthanide Fluoro-Immuno Assay)
[2] = biological target: T1, Mitogen-activated protein kinase 8; test: In Vitro Kinase Assay (LanthaScreen Kinase Assay)
Method: Compounds were tested for their ability to inhibit JNK1 phosphorylation of ATF2 in the Time-Resolved Fluorescence Resonance Energy Transfer (TR-FRET) based LanthaScreen kinase assay (Invitrogen). The signal was measured at 520/495 nm emission ratio on a fluorescence plate reader (Victor 2, Perkin-Elmer).

T1 sequence (P45983 whole entry): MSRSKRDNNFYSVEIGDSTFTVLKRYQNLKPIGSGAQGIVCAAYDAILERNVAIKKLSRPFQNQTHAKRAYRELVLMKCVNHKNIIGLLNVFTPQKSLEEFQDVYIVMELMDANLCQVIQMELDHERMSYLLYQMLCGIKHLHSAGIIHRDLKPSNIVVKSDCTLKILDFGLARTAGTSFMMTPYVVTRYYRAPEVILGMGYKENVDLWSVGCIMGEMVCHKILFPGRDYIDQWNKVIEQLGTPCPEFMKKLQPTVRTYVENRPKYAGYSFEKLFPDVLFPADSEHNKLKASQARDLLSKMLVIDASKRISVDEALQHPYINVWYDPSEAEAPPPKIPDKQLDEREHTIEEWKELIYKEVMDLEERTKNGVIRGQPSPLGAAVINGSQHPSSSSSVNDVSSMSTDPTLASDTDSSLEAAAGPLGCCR

| SMILES | IC50 [1] [nM] | IC50 [2] [nM] | IC50 ([1]; pH 7.8, 0 °C) [nM] |
| --- | --- | --- | --- |
| Nc1nnc(Sc2ncc([N+](=O)[O-])s2)s1 [2-amino-1,3,4-thiadiazole, 9] | 239 | 700 | – |
| O=C(Nc1nnc(Sc2ncc([N+](=O)[O-])s2)s1)c1ccc(F)cc1 [2-amino-1,3,4-thiadiazole, 10] | – | 84000 | – |
| c1ccc(CSc2nnc(SCc3ccccc3)s2)cc1 [dithioether 1,3,4-thiadiazole, 8a] | – | > 100000 | – |
| Fc1ccc(CSc2nnc(SCc3ccc(F)cc3)s2)cc1 [dithioether 1,3,4-thiadiazole, 8b] | – | > 100000 | – |
| COc1ccc(CSc2nnc(SCc3ccc(OC)cc3)s2)cc1 [dithioether 1,3,4-thiadiazole, 8c] | – | > 100000 | – |
| O=[N+]([O-])c1cccc(CSc2nnc(SCc3cccc([N+](=O)[O-])c3)s2)c1 [dithioether 1,3,4-thiadiazole, 8d] | – | > 100000 | – |
| O=[N+]([O-])c1ccc(CSc2nnc(SCc3ccc([N+](=O)[O-])cc3)s2)cc1 [dithioether 1,3,4-thiadiazole, 8e] | – | > 100000 | – |
| O=[N+]([O-])c1cnc(Sc2nnc(Sc3ncc([N+](=O)[O-])s3)s2)s1 [dithioether 1,3,4-thiadiazole, 8f] | 187 | 800 | – |
| O=C(O)c1cnc(Sc2nnc(Sc3ncc(C(=O)O)s3)s2)s1 [dithioether 1,3,4-thiadiazole, 8g] | 100 | 84000 | – |
| CC(C)(C)c1ccc(-n2c(O)nnc2Sc2ncc([N+](=O)[O-])s2)cc1 [triazole, 3a] | 39000 | – | 95 |
| O=[N+]([O-])c1cnc(Sc2nnc(O)n2-c2cccc3ccccc23)s1 [triazole, 3g] | 2700 | – | 48 |
| O=c1[nH]nc(Sc2ncc([N+](=O)[O-])s2)n1-c1ccc([N+](=O)[O-])cc1 [triazole, 3j] | 400 | – | 86 |
| O=[N+]([O-])c1cnc(Sc2nnc(O)n2-c2ccc(F)c(F)c2)s1 [triazole, 3k] | 6600 | – | – |
| O=[N+]([O-])c1cnc(Sc2nnc(O)n2-c2ccc(C(F)(F)F)cc2)s1 [triazole, 3p] | 3000 | – | 75 |
| O=[N+]([O-])c1cnc(Sc2nnc(O)n2C2CCCCC2)s1 [triazole, 3q] | 25000 | – | 56 |
| Cn1cccc1-c1nnc(Sc2ncc([N+](=O)[O-])s2)n1-c1ccc(Cl)cc1Cl [triazole, 7b] | 2000 | – | 83 |
| O=[N+]([O-])c1cnc(Sc2nnc(-c3cccc4ccccc34)n2Cc2ccco2)s1 [triazole, 7d] | 13600 | – | 57 |
| O=[N+]([O-])c1cnc(Sc2nnc(-c3ccncc3)n2-c2ccccc2)s1 [triazole, 7f] | 3100 | – | 122 |
| Cn1c(Cc2nc(-c3cnccn3)[n-][o+]2)nnc1Sc1ncc([N+](=O)[O-])s1 [triazole, 7g] | 100000 | – | 131 |

Other lines, results leading:

| IC50 [1] [nM] | IC50 [2] [nM] | IC50 ([1]; pH 7.8, 0 °C) [nM] | SMILES |
| --- | --- | --- | --- |
| 1800 | – | 225 | O=c1[nH]nc(Sc2ncc([N+](=O)[O-])s2)n1-c1ccc(F)cc1 [triazole, 3c] |
| 4300 | – | 105 | COc1cc(OC)cc(-n2c(Sc3ncc([N+](=O)[O-])s3)n[nH]c2=O)c1 [triazole, 3e] |
| 1000 | – | 43 | COc1ccc(-n2c(Sc3ncc([N+](=O)[O-])s3)n[nH]c2=O)cc1OC [triazole, 3f] |
| 2400 | – | 85 | COc1ccc(OC)c(-n2c(Sc3ncc([N+](=O)[O-])s3)n[nH]c2=O)c1 [triazole, 3h] |
| 2000 | – | 130 | O=c1[nH]nc(Sc2ncc([N+](=O)[O-])s2)n1-c1ccc(OC(F)(F)F)cc1 [triazole, 3i] |
| 84000 | – | 626 | O=c1[nH]nc(Sc2ncc([N+](=O)[O-])s2)n1-c1cccc(F)c1 [triazole, 3l] |
| 16000 | – | 118 | COc1cccc(-n2c(O)nnc2Sc2ncc([N+](=O)[O-])s2)c1 [triazole, 3m] |
| 2900 | – | 160 | O=[N+]([O-])c1cnc(Sc2nnc(O)n2-c2cccc(C(F)(F)F)c2)s1 [triazole, 3o] |
